Laboratory results from US10233186B2, “Inhibitors of activin receptor-like kinase” (BLUEPRINT MEDICINES CORPORATION, priority 2016, dated 2019).
Read-outs that look alike come from different tables or passages of the source.

Key:
human ALK2 R206H = target: T1, human ALK2 R206H (Homo sapiens, UniProt Q04771, R206H); test: Cell-based ALK2-R206H cell activity assay (Smad1-Ser463/Ser465 phosphorylation by AlphaLISA in HEK293-ALK2-R206H cells)
T1 construct: expressed in transfected cells; host or cells: HEK293 (ATCC CRL1573), lentivirus transduction, blasticidin selection
T1 sequence (Q04771 21-509 R206H): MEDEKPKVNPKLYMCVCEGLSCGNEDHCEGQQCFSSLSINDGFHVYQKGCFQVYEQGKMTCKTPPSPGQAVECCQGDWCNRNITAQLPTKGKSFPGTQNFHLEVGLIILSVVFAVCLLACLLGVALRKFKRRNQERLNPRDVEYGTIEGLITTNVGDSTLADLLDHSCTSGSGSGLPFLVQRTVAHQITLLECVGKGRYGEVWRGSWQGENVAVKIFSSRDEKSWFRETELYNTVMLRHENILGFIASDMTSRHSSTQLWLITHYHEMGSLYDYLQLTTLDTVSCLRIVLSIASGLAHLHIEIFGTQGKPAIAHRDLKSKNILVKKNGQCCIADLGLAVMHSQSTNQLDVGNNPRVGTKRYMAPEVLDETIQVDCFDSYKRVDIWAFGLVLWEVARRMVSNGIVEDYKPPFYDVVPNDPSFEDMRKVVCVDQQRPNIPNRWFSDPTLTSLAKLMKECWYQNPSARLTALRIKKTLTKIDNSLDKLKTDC
Method in brief: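 Stable HEK293 cells expressing C-terminally FLAG-tagged human ALK2 R206H (lentiviral, blasticidin-selected) were treated with compounds in 10-point, 3-fold dilutions from 10 μM or 1 μM top, in duplicate. Smad1 Ser463/Ser465 phosphorylation was read by AlphaLISA.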

[1] = target: T2, ALK2 R206H (GST-tagged mutant ALK2) (Homo sapiens, UniProt Q04771, R206H); test: ALK binding assay (LANTHASCREEN TR-FRET competitive binding, displacement of Kinase Tracer 178)
T2 construct: purchased Carna Bioscience or ThermoFisher 09-148 or PV6232
T2 sequence (Q04771 21-509 R206H): T1 sequence (Q04771 21-509 R206H)

[2] = read-out: Cell Line (Cell Assay IC50)
[3] = ALK2 R206H, LANTHASCREEN TR-FRET competitive binding, read-out: Binding Assay (IC50)

IC50 (human ALK2 R206H; [2])	IC50 [1, 3]	IC50 (human ALK2 R206H; Cell Line (Cell Assay IC50))	IC50 [1]	Structure (SMILES)
< 100 nM	< 10 nM			CC(C)NC(=O)N1CCN(c2ccnn3cc(-c4ccc(C5(C(F)(F)F)CCNCC5)cc4)cc23)CC1 [Compound 823]
< 100 nM	< 10 nM			CCC(C)N1CCC(c2ccc(-c3cc4c(N5CCN(C(=O)C6CC6)CC5)ccnn4c3)cc2)CC1 (stereo not shown) [Compound 313]
< 100 nM	< 10 nM			CC(C)NC(=O)N1CCN(c2ccnn3cc(-c4ccc([C@@]5(O)CCN(C(C)C)C5)cc4)cc23)CC1 [Compound 595]
< 100 nM	< 10 nM			O=C(C1CC1)N1CCN(c2ccnn3cc(-c4ccc(N5CCN6CCCC6C5)cc4)cc23)CC1 (stereo not shown) [Compound 243]
100 to 500 nM	< 10 nM			CCN1CCN(c2ccc(-c3cc4c(N5CCN(C(=O)C6CC6)C[C@@H]5C)ccnn4c3)cc2)CC1 [Compound 263]
< 100 nM	< 10 nM			O=C(C1CC1)N1CCN(c2ccnn3cc(-c4ccc([C@@]5(F)CCCNC5)cc4)cc23)CC1 [Compound 178]
< 100 nM	< 10 nM			CC(C)N1CCC[C@@H](c2ccc(-c3cc4c(N5CCN(C(=O)OC6COC6)CC5)ccnn4c3)cc2F)C1 [Compound 692]
< 100 nM	< 10 nM			CC(C)N1CCC[C@H](c2ccc(-c3cc4c(N5CCN(C(=O)C6CC6)CC5)ccnn4c3)cc2)C1 [Compound 247]
100 to 500 nM	< 10 nM			O=C(C1CC1)N1CCN(c2ccnn3cc(-c4ccc(N5CCN6CCC6C5)cc4)cc23)CC1 (stereo not shown) [Compound 196]
< 100 nM	< 10 nM			COC1(c2ccc(-c3cc4c(N5CCN(C(=O)C6CC(C#N)C6)CC5)ccnn4c3)cc2)CN(C(C)C)C1 (stereo not shown) [Compound 655]
< 100 nM	< 10 nM			CC(C)N1CC[C@@H](c2ccc(-c3cc4c(N5CCN(C(=O)[C@H]6CC[C@H](C#N)CC6)CC5)ccnn4c3)nc2)C1 [Compound 702]
> 500 nM	< 10 nM			CC(C)N1CCC(c2ccc(-c3cc4c(N5CCN(C(=O)OC(CO)C(=O)O)CC5)ccnn4c3)cc2)CC1 (stereo not shown) [Compound 847, 3-hydroxy-2-(4-(6-(4-(1-isopropylpiperidin-4-yl)phenyl)pyrrolo[1,2-b]pyridazin-4-yl)piperazine-1-carbonyloxy)propanoic acid]
< 100 nM	< 10 nM			CO[C@@]1(c2ccc(-c3cc4c(N5CCN(C(=O)OC6COC6)CC5)ccnn4c3)cc2)CCCNC1 [Compound 600]
100 to 500 nM	< 10 nM			CC(C)(C)OC(=O)N1CCC(N)(c2ccc(-c3cc4c(N5CCN(C(=O)C6CC6)CC5)ccnn4c3)cc2)CC1 [Compound 732]
< 100 nM	< 10 nM			COC1(c2ccc(-c3cc4c(N5CCN(C(=O)C6CC6)CC5)ccnn4c3)cc2)CN(C(C)C)C1 [Compound 521]
< 100 nM	< 10 nM			CCOC(=O)N1CCN(c2ccnn3cc(-c4ccc([C@@]5(F)CCCN(C(C)C)C5)cn4)cc23)CC1 [Compound 614]
100 to 500 nM	< 10 nM			CCNC(=O)N1CCN(c2ccnn3cc(-c4ccc(N5CC6(C5)CN(C(C)C)C6)cc4)cc23)CC1 [Compound 328]
100 to 500 nM	10 to 50 nM			CCN1CCN(c2ccc(-c3cc4c(N5CCN(C(=O)N6CCC6)CC5)ccnn4c3)cc2)CC1 [Compound 272]
< 100 nM	< 10 nM			CO[C@@]1(c2ccc(-c3cc4c(N5CCN(C(=O)OC6COC6)CC5)ccnn4c3)nc2)CCCNC1 [Compound 801]
< 100 nM	< 10 nM			CC(C)N1CC[C@H](c2ccc(-c3cc4c(N5CCN(C(=O)[C@H]6CC[C@H](C#N)CC6)CC5)ccnn4c3)nc2)C1 [Compound 703]
< 100 nM	< 10 nM			CCOC(=O)N1CCN(c2ccnn3cc(-c4ccc([C@@]5(OC)CCN(C(C)C)C5)cc4)cc23)CC1 [Compound 603]
< 100 nM	< 10 nM			CCO[C@]1(c2ccc(-c3cc4c(N5CCN(C(=O)NC(C)C)CC5)ccnn4c3)nc2)CCCNC1 [Compound 798]

IC50 (human ALK2 R206H; [2])	IC50 [1, 3]	IC50 (human ALK2 R206H; Cell Line (Cell Assay IC50))	IC50 [1]	Structure (SMILES)
< 100 nM	< 10 nM			CC(C)NC(=O)N1CCN(c2ccnn3cc(-c4ccc([C@H]5CN(C(C)C)CC[C@@H]5OC(F)F)cc4)cc23)CC1 [Compound 868]
< 100 nM	< 10 nM			CCCNC(=O)N1CCN(c2ccnn3cc(-c4ccc([C@H]5CCCN(C(C)C)C5)cc4)cc23)CC1 [Compound 579]
100 to 500 nM	< 10 nM			CC(C)N1CCCC(c2ccc(-c3cc4c(N5CCN(C(=O)N6CC(C#N)C6)CC5)ccnn4c3)cc2)C1 (stereo not shown) [Compound 411]
100 to 500 nM	< 10 nM			N[C@@H]1CCN(c2ccc(-c3cc4c(N5CCN(C(=O)C6CC6)CC5)ccnn4c3)cc2)C1 [Compound 462]
> 500 nM	10 to 50 nM			O=C(C1CC1)N1CCN(c2ccnn3cc(-c4cnn(C5CCCC5)c4)cc23)CC1 [Compound 103]
< 100 nM	< 10 nM			CCN1CCC[C@H](c2ccc(-c3cc4c(N5CCN(C(=O)C6CC6)CC5)ccnn4c3)cc2)C1 [Compound 207]
< 100 nM	< 10 nM			O=C(C1CCC1)N1CCN(c2ccnn3cc(-c4ccc(C5(F)CCCNC5)cc4)cc23)CC1 (stereo not shown) [Compound 229]
< 100 nM	< 10 nM			O=C(C1CC1)N1CCN(c2ccnn3cc(-c4ccc(O[C@@H]5CCCNC5)cc4)cc23)CC1 [Compound 162]
< 100 nM	< 10 nM			CC(C)NC(=O)N1CCN(c2ccnn3cc(-c4ccc([C@@H]5CCCN(C(C)C)C5)cn4)cc23)CC1 [Compound 588]
< 100 nM	< 10 nM			CC(C)N1CCC(c2ccc(-c3cc4c(N5CCN(C(=O)C6CC6)CC5)ccnn4c3)cn2)CC1 [Compound 267]
< 100 nM	< 10 nM			O=C(C1CC1)N1CCN(c2ccnn3cc(-c4ccc(C5(F)CCCNC5)cc4)cc23)CC1 (stereo not shown) [Compound 177]
		< 100 nM	< 10 nM	CC1(C)CC(O)(c2ccc(-c3cc4c(N5CCN(C(=O)C6CC6)CC5)ccnn4c3)cc2)CC(C)(C)N1 [Compound 813]
< 100 nM	< 10 nM			CC(C)N1CC[C@](O)(c2ccc(-c3cc4c(N5CCN(C(=O)C6CC6)CC5)ccnn4c3)cc2)C1 [Compound 522]
< 100 nM	< 10 nM			CCCNC(=O)N1CCN(c2ccnn3cc(-c4ccc([C@@H]5CCCN(C(C)C)C5)cc4)cc23)CC1 [Compound 580]
100 to 500 nM	< 10 nM			CCOC(=O)N1CCN(c2ccnn3cc(-c4ccc(OC5CN(C(C)C)C5)cc4)cc23)CC1 [Compound 236]
< 100 nM	< 10 nM			COC1(c2ccc(-c3cc4c(N5CCN(C(=O)NC(C)C)CC5)ccnn4c3)nc2)CCN(C(C)CF)CC1 (stereo not shown) [Compound 850]
< 100 nM	< 10 nM			O=C(C1CC1)N1CCN(c2ccnn3cc(-c4ccc(C5CNCC5F)cc4)cc23)CC1 (stereo not shown) [Compound 137]
100 to 500 nM	< 10 nM			C[C@H]1CNC[C@H](c2ccc(-c3cc4c(N5CCN(C(=O)C6CC6)CC5)ccnn4c3)cc2)O1 [Compound 169]
< 100 nM	< 10 nM			CCN1CCC(COc2ccc(-c3cc4c(N5CCN(C(=O)C6CC6)CC5)ccnn4c3)cc2)C1 (stereo not shown) [Compound 270]
< 100 nM	< 10 nM			CC(C)N1CC2(CN(c3ccc(-c4cc5c(N6CCN(C(=O)C7CC7)CC6)ccnn5c4)cc3)C2)C1 [Compound 308]
< 100 nM	< 10 nM			CC(C)N1CCC(c2ccc(-c3cc4c(N5CCN(C(=O)OCC6COC6)CC5)ccnn4c3)cc2)CC1 [Compound 665]
< 100 nM	< 10 nM			CC(C)N1CCN(c2ccc(-c3cc4c(N5CCN(C(=O)[C@H]6C[C@H]6F)CC5)ccnn4c3)cc2)CC1 [Compound 350]

Structure (SMILES)	IC50 (human ALK2 R206H; [2])	IC50 [1, 3]	IC50 (human ALK2 R206H; Cell Line (Cell Assay IC50))	IC50 [1]
CCOC1(c2ccc(-c3cc4c(N5CCN(C(=O)C6CC6)CC5)ccnn4c3)cc2)CCN(C(C)C)CC1 [Compound 658]	< 100 nM	< 10 nM		
CCOC1(c2ccc(-c3cc4c(N5CCN(C(=O)OC6CN(C(C)=O)C6)CC5)ccnn4c3)nc2)CCN(C(C)C)CC1 [Compound 895]	100 to 500 nM	< 10 nM		
COC1(c2cnc(-c3cc4c(N5CCN(C(=O)C6CC6)CC5)ccnn4c3)c(F)c2)CCN(C(C)C)CC1 [Compound 689]	100 to 500 nM	< 10 nM		
COC1(c2ccc(-c3cc4c(N5CCN(C(=O)NC(C)C)CC5)ccnn4c3)cc2)CCN(C2COC2)CC1 [Compound 844]	< 100 nM	< 10 nM		
COC1(c2ccc(-c3cc4c(N5CCN(C(=O)NC(C)C)CC5)ccnn4c3)nc2)CCN(C2COC2)CC1 [Compound 714]	< 100 nM	< 10 nM		
CCOC(=O)N1CCN(c2ccnn3cc(-c4ccc(C5(OC)CCN(C(C)C)CC5)cc4F)cc23)CC1 [Compound 701, ethyl 4-(6-(2-fluoro-4-(1-isopropyl-4-methoxypiperidin-4-yl)phenyl)pyrrolo[1,2-b]pyridazin-4-yl)piperazine-1-carboxylate]	< 100 nM	< 10 nM		
